Data as given in US10752621B2, “Oxazolidinone compounds and methods of use thereof as antibacterial agents” (priority 2017, dated 2020).
Values after ≈ are worked out from the molar mass of the structure shown. Where two headings read alike, the source gives them in different places.

Tested on: Mycobacterium tuberculosis (Mtb-GFP; H37Rv pMSP12::GFP)
Test: microbe, parasite or virus in culture
Assay type: cell-based
Details: 168 h
[1] = pH 6.8, read-out: Mtb Cho MITC95
[2] = pH 6.8, read-out: Mtb Glu MITC95

Cn1nccc1-c1ccc(N2C[C@H](CN/C(N)=N/C#N)OC2=O)cc1F [Example 1, (S,E)-2-cyano-1-((3-(3-fluoro-4-(1-methyl-1H-pyrazol-5-yl)phenyl)-2-oxooxazolidin-5-yl)methyl)guanidine]
MIC [1]: 0.78 µM (≈ 0.279 µg/mL)
MIC [2]: 0.78 µM (≈ 0.279 µg/mL)

Cc1nnn(-c2ccc(-c3ccc(N4C[C@H](CN/C(N)=N/C#N)OC4=O)cc3F)cn2)n1 [Example 2, (S,E)-2-cyano-1-((3-(3-fluoro-4-(6-(5-methyl-2H-tetrazol-2-yl)pyridin-3-yl)phenyl)-2-oxooxazolidin-5-yl)methyl)guanidine]
MIC [1]: 0.19 µM (≈ 0.0829 µg/mL)
MIC [2]: 0.09 µM (≈ 0.0393 µg/mL)

N#C/N=C(\N)NC[C@H]1CN(c2ccc(-c3ccc(-n4nccn4)nc3)c(F)c2)C(=O)O1 [Example 3, (S,E)-1-((3-(4-(6-(2H-1,2,3-triazol-2-yl)pyridin-3-yl)-3-fluorophenyl)-2-oxooxazolidin-5-yl)methyl)-2-cyanoguanidine]
MIC [1]: 0.19 µM (≈ 0.0801 µg/mL)
MIC [2]: 0.19 µM (≈ 0.0801 µg/mL)

CS(=O)(=O)c1ccc(-c2ccc(N3C[C@H](CN/C(N)=N/C#N)OC3=O)cc2F)cc1 [Example 4, (S,E)-2-cyano-1-((3-(2-fluoro-4′-(methylsulfonyl)-[1,1′-biphenyl]-4-yl)-2-oxooxazolidin-5-yl)methyl)guanidine]
MIC [1]: 0.39 µM (≈ 0.168 µg/mL)
MIC [2]: 0.39 µM (≈ 0.168 µg/mL)

CS(=O)(=O)c1ccc(-c2ccc(N3C[C@H](CN/C(N)=N/C#N)OC3=O)cc2F)cn1 [Example 5, (S,E)-2-cyano-1-((3-(3-fluoro-4-(6-(methylsulfonyl)pyridin-3-yl)phenyl)-2-oxooxazolidin-5-yl)methyl)guanidine]
MIC [1]: 0.39 µM (≈ 0.169 µg/mL)
MIC [2]: 0.78 µM (≈ 0.337 µg/mL)

C/C(=N\C#N)NC[C@H]1CN(c2ccc(-c3ccnn3C)c(F)c2)C(=O)O1 [Example 6, (S,E)-N′-cyano-N-((3-(3-fluoro-4-(1-methyl-1H-pyrazol-5-yl)phenyl)-2-oxooxazolidin-5-yl)methyl)acetimidamide]
MIC [1]: 0.78 µM (≈ 0.278 µg/mL)
MIC [2]: 0.78 µM (≈ 0.278 µg/mL)

C/C(=N\C#N)NC[C@H]1CN(c2ccc(-c3cccc(S(N)(=O)=O)c3)c(F)c2)C(=O)O1 [Example 7, (S,E)-N′-cyano-N-((3-(2-fluoro-3′-sulfamoyl-[1,1′-biphenyl]-4-yl)-2-oxooxazolidin-5-yl)methyl)acetimidamide]
MIC [1]: 1.14 µM (≈ 0.492 µg/mL)
MIC [2]: 1.5 µM (≈ 0.647 µg/mL)

C/C(=N\C#N)NC[C@H]1CN(c2cnc(N3CCS(=O)(=O)CC3)c(F)c2)C(=O)O1 [Example 8, (S,E)-N′-cyano-N-((3-(6-(1,1-dioxidothiomorpholino)-5-fluoropyridin-3-yl)-2-oxooxazolidin-5-yl)methyl)acetimidamide]
MIC [1]: 6.25 µM (≈ 2.57 µg/mL)
MIC [2]: 6.25 µM (≈ 2.57 µg/mL)

C/C(=N\C#N)NC[C@H]1CN(c2ccc(N3CCOCC3)c(F)c2)C(=O)O1 [Example 9, (S,E)-N′-cyano-N-((3-(3-fluoro-4-morpholinophenyl)-2-oxooxazolidin-5-yl)methyl)acetimidamide]
MIC [1]: 3.12 µM (≈ 1.13 µg/mL)
MIC [2]: 3.12 µM (≈ 1.13 µg/mL)

C/C(=N\C#N)NC[C@H]1CN(c2ccc(-c3ccc(-n4nccn4)nc3)c(F)c2)C(=O)O1 [Example 10, (S,E)-N-((3-(4-(6-(2H-1,2,3-triazol-2-yl)pyridin-3-yl)-3-fluorophenyl)-2-oxooxazolidin-5-yl)methyl)-N′-cyanoacetimidamide]
MIC [1]: 0.39 µM (≈ 0.164 µg/mL)
MIC [2]: 0.14 µM (≈ 0.0589 µg/mL)

C/C(=N\C#N)NC[C@H]1CN(c2cc(F)c(N3CCS(=O)(=O)CC3)c(F)c2)C(=O)O1 [Example 11, (S,E)-N′-cyano-N-((3-(4-(1,1-dioxidothiomorpholino)-3,5-difluorophenyl)-2-oxooxazolidin-5-yl)methyl)acetimidamide]
MIC [1]: 3.12 µM (≈ 1.33 µg/mL)
MIC [2]: 1.5 µM (≈ 0.641 µg/mL)

C/C(=N\C#N)NC[C@H]1CN(c2ccc(-c3ccc(-n4nnc(C)n4)nc3)c(F)c2)C(=O)O1 [Example 12, (S,E)-N′-cyano-N-((3-(3-fluoro-4-(6-(5-methyl-2H-tetrazol-2-yl)pyridin-3-yl)phenyl)-2-oxooxazolidin-5-yl)methyl)acetimidamide]
MIC [1]: 0.19 µM (≈ 0.0827 µg/mL)
MIC [2]: 0.14 µM (≈ 0.061 µg/mL)

C/C(=N\C#N)NC[C@H]1CN(c2ccc(-c3ccc(S(C)(=O)=O)nc3)c(F)c2)C(=O)O1 [Example 13, (S,E)-N′-cyano-N-((3-(3-fluoro-4-(6-(methylsulfonyl)pyridin-3-yl)phenyl)-2-oxooxazolidin-5-yl)methyl)acetimidamide]
MIC [1]: 1.5 µM (≈ 0.647 µg/mL)
MIC [2]: 0.78 µM (≈ 0.337 µg/mL)

C/C(=N\C#N)NC[C@H]1CN(c2ccc(-c3ccc(S(C)(=O)=O)cc3)c(F)c2)C(=O)O1 [Example 14, (S,E)-N′-cyano-N-((3-(2-fluoro-4′-(methylsulfonyl)-[1,1′-biphenyl]-4-yl)-2-oxooxazolidin-5-yl)methyl)acetimidamide]
MIC [1]: 0.58 µM (≈ 0.25 µg/mL)
MIC [2]: 0.58 µM (≈ 0.25 µg/mL)

Cn1nccc1-c1ccc(N2C[C@H](CNC=N)OC2=O)cc1F [Example 15, (S)-N-((3-(3-fluoro-4-(1-methyl-1H-pyrazol-5-yl)phenyl)-2-oxooxazolidin-5-yl)methyl)formimidamide]
MIC [1]: 0.78 µM (≈ 0.248 µg/mL)
MIC [2]: 0.39 µM (≈ 0.124 µg/mL)

CS(=O)(=O)c1ccc(-c2ccc(N3C[C@H](CNC=N)OC3=O)cc2F)cc1 [Example 16, (S)-N-((3-(2-fluoro-4′-(methylsulfonyl)-[1,1′-biphenyl]-4-yl)-2-oxooxazolidin-5-yl)methyl)formimidamide]
MIC [1]: 0.39 µM (≈ 0.153 µg/mL)
MIC [2]: 0.19 µM (≈ 0.0744 µg/mL)

N=CNC[C@H]1CN(c2ccc(-c3ccc(-n4cnnn4)nc3)c(F)c2)C(=O)O1 [Example 17, (S)-N-((3-(4-(6-(1H-tetrazol-1-yl)pyridin-3-yl)-3-fluorophenyl)-2-oxooxazolidin-5-yl)methyl)formimidamide]
MIC [1]: 0.24 µM (≈ 0.0918 µg/mL)
MIC [2]: 0.12 µM (≈ 0.0459 µg/mL)

N=CNC[C@H]1CN(c2cc(F)c(-c3ccc(S(N)(=O)=O)cc3)c(F)c2)C(=O)O1 [Example 18, (S)-N-((3-(2,6-difluoro-4′-sulfamoyl-[1,1′-biphenyl]-4-yl)-2-oxooxazolidin-5-yl)methyl)formimidamide]
MIC [1]: 0.39 µM (≈ 0.16 µg/mL)
MIC [2]: 0.29 µM (≈ 0.119 µg/mL)

N=CNC[C@H]1CN(c2cc(F)c(-c3cccc(S(N)(=O)=O)c3)c(F)c2)C(=O)O1 [Example 19, (S)-N-((3-(2,6-difluoro-3′-sulfamoyl-[1,1′-biphenyl]-4-yl)-2-oxooxazolidin-5-yl)methyl)formimidamide]
MIC [1]: 0.68 µM (≈ 0.279 µg/mL)
MIC [2]: 0.39 µM (≈ 0.16 µg/mL)

N=CNC[C@H]1CN(c2cc(F)c(N3CCOCC3)c(F)c2)C(=O)O1 [Example 20, (S)-N-((3-(3,5-difluoro-4-morpholinophenyl)-2-oxooxazolidin-5-yl)methyl)formimidamide]
MIC [1]: 0.58 µM (≈ 0.197 µg/mL)
MIC [2]: 0.14 µM (≈ 0.0476 µg/mL)

CC(=N)NC[C@H]1CN(c2ccc(-c3ccnn3C)c(F)c2)C(=O)O1 [Example 21, (S)-N-((3-(3-fluoro-4-(1-methyl-1H-pyrazol-5-yl)phenyl)-2-oxooxazolidin-5-yl)methyl)acetimidamide]
MIC [1]: 25 µM (≈ 8.28 µg/mL)
MIC [2]: 25 µM (≈ 8.28 µg/mL)

CC(=N)NC[C@H]1CN(c2cc(F)c(-c3cccc(S(N)(=O)=O)c3)c(F)c2)C(=O)O1 [Example 22, (S)-N-((3-(2,6-difluoro-3′-sulfamoyl-[1,1′-biphenyl]-4-yl)-2-oxooxazolidin-5-yl)methyl)acetimidamide]
MIC [1]: 6.25 µM (≈ 2.65 µg/mL)
MIC [2]: 3.12 µM (≈ 1.32 µg/mL)

CC(=N)NC[C@H]1CN(c2ccc(-c3ccc(-n4cnnn4)nc3)c(F)c2)C(=O)O1 [Example 23, (S)-N-((3-(4-(6-(1H-tetrazol-1-yl)pyridin-3-yl)-3-fluorophenyl)-2-oxooxazolidin-5-yl)methyl)acetimidamide]
MIC [1]: 12.5 µM (≈ 4.95 µg/mL)
MIC [2]: 6.25 µM (≈ 2.48 µg/mL)

CC(=N)NC[C@H]1CN(c2ccc(-c3cccc(S(N)(=O)=O)c3)c(F)c2)C(=O)O1 [Example 24, (S)-N-((3-(2-fluoro-3′-sulfamoyl-[1,1′-biphenyl]-4-yl)-2-oxooxazolidin-5-yl)methyl)acetimidamide]
MIC [1]: 6.25 µM (≈ 2.54 µg/mL)
MIC [2]: 6.25 µM (≈ 2.54 µg/mL)

CC(=O)NC[C@H]1CN(c2ccc(N3CCOCC3)c(F)c2)C(=O)O1 [Linezolid, reference compound]
MIC [1]: 3.14 µM (≈ 1.06 µg/mL)
MIC [2]: 4.58 µM (≈ 1.55 µg/mL)
